Assay results published in patent US6310210A, “Camptothecin derivatives” (Kabushiki Kaisha Yakult Honsha, priority 1997, dated 2001).
Values after ≈ are worked out from the molar mass of the structure shown. Structures can show the parent of a compound that is named as a salt.

What was measured:
[1] = Solubility of each hydrochloride in purified water; format: physicochemical
Method: A corresponding camptothecin-21-(2-dimethylamino) ethylamide derivative (100-200 mg) was added with an aqueous 0.1 N HCl solution (1.05 eq.) and dissolved, if necessary, further by adding purified water. The solution was filtered using MILLEX-GV ([…] Filter Unit), and the filtrate was lyophilized to give the desired hydrochloride.
Table 1: Solubility of each hydrochloride in purified water

mouse leukemia L1210 = test: Anti-tumor activity: life prolonging effect in mice transplanted intraperitoneally with mouse leukemia L1210 (T/C%); format: in vivo; conditions: for Anti-tumor activity (T/C%): i.p. day 1, 5 and 9; for Anti-tumor activity: fraction in parentheses after T/C% (meaning not given): group of six mice
Method: 5×10^5 cells of mouse leukemia L1210 were transplanted intraperitoneally to a group of six female CDP1 mice (7 weeks old, body weight 17-19 g). A test substance was administered intraperitoneally on day 1, 5 and 9, and its life prolonging effect was observed. In a case of the administration of a test substance as an acid addition salt, it was dissolved in purified water. The total administration amount was 1.56-400 mg/kg. The anti-tumor activity was expressed by the value (T/C%) in which the ratio of the mean survival days of a drug administered group (T) to the mean survival days of a not administered group (C) is multiplied by 100.

[2] = Stability test in water at each pH (phosphate buffer, HPLC); format: physicochemical; conditions: for Amount of the compound in test solution: room temperature (about 26° C.)
Method: 1) Preparation of calibration curve:
1.05 mg of the compound 1 and 1.10 mg of the compound A (Note) were measured, dissolved in acetonitrile 10 ml to give a standard solution. 20 μl of the standard solution was tested by HPLC method (procedure condition 1). The peak area of the compound 1 and the compound A (Note), which is obtained from the chromatograph of the standard solution is measured by an automatic integration method, and the obtained area is plotted against an amount of the compound 1 and the compound A (2.1 μg and 2.2 μg) by 20 μl to prepare a calibration curve.
[HPLC method, procedure condition 1]
Column: Inertsil ODS-3 (5-250), 40 deg.
Mobile phase: 0.01 M potassium dihydrogenphosphate-acetonitrile (3:1)
Detection: UV absorptiometer (254 nm)
About 1 mg (×3) of the compound 1 were measured, dissolved adding a phosphate buffer 10 ml of pH 10.0, 7.0 or 5.4, stirred at room temperature (about 26° C.) to make a test solution. As to each 20 μl of the test solution at the time of dissolution, 3 hr later and 24 hr later, the tests were carried out by the HPLC method (procedure condition 1). The amounts of the compound 1 were measured from the obtained area. The amounts of the compound A in each pH were measured.
The amounts (μg/ml) of the compound 1 and the compound A at the time of dissolution, 3 hr later and 24 hr later in each pH are shown in Table 7.

CCc1c2c(nc3ccccc13)-c1cc([C@@](O)(CC)C(=O)NCCN(C)C)c(COC(=O)Nc3cccc(F)c3)c(=O)n1C2 [Compound 9, 7-Ethyl-17-(3-fluorophenylcarbamoyloxy)-camptothecin-21-(2-dimethylamino)ethylamide]
solubility [1]: ~28 mg/mL (≈ 46.5 mM)

CCCNC(=O)OCc1c([C@@](O)(CC)C(=O)NCCN(C)C)cc2n(c1=O)Cc1c-2nc2ccccc2c1CC [Compound 3, 7-Ethyl-17-n-propylcarbamoyloxycamptothecin-21-(2-dimethylamino)ethylamide]
solubility [1]: ~11 mg/mL (≈ 20 mM)
Anti-tumor activity (T/C%) (mouse leukemia L1210; Table 2, total dose 3.13 mg/kg): 100%
Anti-tumor activity (T/C%) (mouse leukemia L1210; Table 2, total dose 6.25 mg/kg): 100%
Anti-tumor activity (T/C%) (mouse leukemia L1210; Table 2, total dose 12.5 mg/kg): 139%
Anti-tumor activity (T/C%) (mouse leukemia L1210; Table 2, total dose 25 mg/kg): 142%
Anti-tumor activity (T/C%) (mouse leukemia L1210; Table 2, total dose 50 mg/kg): 147%
Anti-tumor activity (T/C%) (mouse leukemia L1210; Table 2, total dose 100 mg/kg): 147%
Anti-tumor activity (T/C%) (mouse leukemia L1210; Table 2, total dose 200 mg/kg): 147%

CCCCNC(=O)OCc1c([C@@](O)(CC)C(=O)NCCN(C)C)cc2n(c1=O)Cc1c-2nc2ccccc2c1CC [Compound 5, 17-n-Butylcarbamoyloxy-7-ethylcamptothecin-21-(2-dimethylamino)ethylamide]
solubility [1]: ~10 mg/mL (≈ 17.7 mM)

CCCOC(=O)OCc1c([C@@](O)(CC)C(=O)NCCN(C)C)cc2n(c1=O)Cc1c-2nc2ccccc2c1CC [Compound 20, 7-Ethyl-17-n-propoxycarbonyloxycamptothecin-21-(2-dimethylamino)ethylamide]
solubility [1]: ≥ 52 mg/mL

CCc1c2c(nc3ccccc13)-c1cc(C(O)(CC)C(=O)[O-])c(CO)c(=O)n1C2.[Na+] (stereo not shown) [Reference Compound, 7-ethylcamptothecin sodium salt, reference compound]
Anti-tumor activity (T/C%) (mouse leukemia L1210; Table 2, total dose 3.13 mg/kg): 129%
Anti-tumor activity (T/C%) (mouse leukemia L1210; Table 2, total dose 6.25 mg/kg): 142%
Anti-tumor activity (T/C%) (mouse leukemia L1210; Table 2, total dose 12.5 mg/kg): 153%
Anti-tumor activity (T/C%) (mouse leukemia L1210; Table 2, total dose 25 mg/kg): 211%
Anti-tumor activity (T/C%) (mouse leukemia L1210; Table 2, total dose 50 mg/kg): 266%
Anti-tumor activity: fraction in parentheses after T/C% (meaning not given) (mouse leukemia L1210; Table 2, total dose 100 mg/kg): 2/6
Anti-tumor activity (T/C%) (mouse leukemia L1210; Table 2, total dose 100 mg/kg): 339%
Anti-tumor activity: fraction in parentheses after T/C% (meaning not given) (mouse leukemia L1210; Table 2, total dose 200 mg/kg): 1/6
Anti-tumor activity (T/C%) (mouse leukemia L1210; Table 2, total dose 200 mg/kg): 303%
Anti-tumor activity (T/C%) (mouse leukemia L1210; Table 4, total dose 3.13 mg/kg): 126%
Anti-tumor activity (T/C%) (mouse leukemia L1210; Table 4, total dose 6.25 mg/kg): 146%
Anti-tumor activity (T/C%) (mouse leukemia L1210; Table 4, total dose 12.5 mg/kg): 151%
Anti-tumor activity (T/C%) (mouse leukemia L1210; Table 4, total dose 25 mg/kg): 215%
Anti-tumor activity (T/C%) (mouse leukemia L1210; Table 4, total dose 50 mg/kg): 249%
Anti-tumor activity: fraction in parentheses after T/C% (meaning not given) (mouse leukemia L1210; Table 4, total dose 100 mg/kg): 4/6
Anti-tumor activity (T/C%) (mouse leukemia L1210; Table 4, total dose 100 mg/kg): 513%
Anti-tumor activity: fraction in parentheses after T/C% (meaning not given) (mouse leukemia L1210; Table 4, total dose 200 mg/kg): 1/6
Anti-tumor activity (T/C%) (mouse leukemia L1210; Table 4, total dose 200 mg/kg): 362%

CCc1c2c(nc3ccccc13)-c1cc([C@@](O)(CC)C(=O)NCCN(C)C)c(COC(=O)N(CC)CC)c(=O)n1C2 [Compound 15, 17-Diethylcarbamoyloxy-7-ethylcamptothecin-21-(2-dimethylamino)ethylamide]
solubility [1]: ~53 mg/mL (≈ 94 mM)

CCc1c2c(nc3ccccc13)-c1cc([C@@](O)(CC)C(=O)NCCN(C)C)c(COC(=O)NC3CCCCC3)c(=O)n1C2 [Compound 6, 7-Ethyl-17-c-hexylcarbamoyloxycamptothecin-21-(2-dimethylamino)ethylamide]
solubility [1]: ~50 mg/mL (≈ 84.8 mM)

CCc1c2c(nc3ccccc13)-c1cc([C@@](O)(CC)C(=O)NCCN(C)C)c(COC(=O)N(C)C)c(=O)n1C2 [Compound 14, 17-Dimethylcarbamoyloxy-7-ethylcamptothecin-21-(2-dimethylamino)ethylamide]
solubility [1]: ~50 mg/mL (≈ 93.3 mM)
Anti-tumor activity (T/C%) (mouse leukemia L1210; Table 4, total dose 3.13 mg/kg): 118%
Anti-tumor activity (T/C%) (mouse leukemia L1210; Table 4, total dose 6.25 mg/kg): 121%
Anti-tumor activity (T/C%) (mouse leukemia L1210; Table 4, total dose 12.5 mg/kg): 126%
Anti-tumor activity (T/C%) (mouse leukemia L1210; Table 4, total dose 25 mg/kg): 136%
Anti-tumor activity (T/C%) (mouse leukemia L1210; Table 4, total dose 50 mg/kg): 149%
Anti-tumor activity (T/C%) (mouse leukemia L1210; Table 4, total dose 100 mg/kg): 218%
Anti-tumor activity: fraction in parentheses after T/C% (meaning not given) (mouse leukemia L1210; Table 4, total dose 200 mg/kg): 4/6
Anti-tumor activity (T/C%) (mouse leukemia L1210; Table 4, total dose 200 mg/kg): 523%

CCc1c2c(nc3ccccc13)-c1cc([C@@](O)(CC)C(=O)NCCN(C)C)c(COC(C)=O)c(=O)n1C2 [Compound A, 7-Ethyl-17-acetoxycamptothecin-21-(2-dimethylamino)ethylamide hydrochloride, reference compound]
Amount of the compound in test solution ([2]; pH 5.4, 3 hr later): 126 µg/mL
Amount of the compound in test solution ([2]; pH 5.4, 24 hr later): 124 µg/mL
Amount of the compound in test solution ([2]; pH 5.4, at the time of dissolution): 126 µg/mL
Amount of the compound in test solution ([2]; pH 7.0, 3 hr later): 110 µg/mL
Amount of the compound in test solution ([2]; pH 7.0, 24 hr later): 107 µg/mL
Amount of the compound in test solution ([2]; pH 7.0, at the time of dissolution): 110 µg/mL
Amount of the compound in test solution ([2]; pH 10.0, 3 hr later): 79 µg/mL
Amount of the compound in test solution ([2]; pH 10.0, 24 hr later): 16 µg/mL
Amount of the compound in test solution ([2]; pH 10.0, at the time of dissolution): 102 µg/mL
degraded at 24 h ([2]; phosphate buffer, pH 10.0, after 24 hr, read-out: hydrolyzed in the aqueous solution): 84%

CCc1c2c(nc3ccccc13)-c1cc([C@@](O)(CC)C(=O)NCCN(C)C)c(COC(=O)OC)c(=O)n1C2 [Compound 18, 7-Ethyl-17-methoxycarbonyloxycamptothecin-21-(2-dimethylamino)ethylamide]
solubility [1]: ≥ 50 mg/mL

CCOC(=O)OCc1c([C@@](O)(CC)C(=O)NCCN(C)C)cc2n(c1=O)Cc1c-2nc2ccccc2c1CC [Compound 19, 7-Ethyl-17-ethoxycarbonyloxycamptothecin-21-(2-dimethylamino)ethylamide]
solubility [1]: ≥ 52 mg/mL

CCCCOC(=O)OCc1c([C@@](O)(CC)C(=O)NCCN(C)C)cc2n(c1=O)Cc1c-2nc2ccccc2c1CC [Compound 21, 17-n-Butoxycarbonyloxy-7-ethyl-camptothecin-21-(2l-dimethylamino)ethylamide]
solubility [1]: ≥ 54 mg/mL

CCNC(=O)OCc1c([C@@](O)(CC)C(=O)NCCN(C)C)cc2n(c1=O)Cc1c-2nc2ccccc2c1CC [Compound 2, 7-Ethyl-17-ethylcarbamoyloxycamptothecin-21-(2-dimethylamino)ethylamide]
solubility [1]: ~14 mg/mL (≈ 26.1 mM)

CCc1c2c(nc3ccccc13)-c1cc([C@@](O)(CC)C(=O)NCCN(C)C)c(COC(=O)N3CCN(CC(=O)NC(C)C)CC3)c(=O)n1C2 [Compound 16, 7-Ethyl-17-(4-isopropylaminocarbonylmethyl-piperazino)-carbamoyloxy-camptothecin-21-(2-dimethylamino)ethylamide]
solubility [1]: ≥ 33 mg/mL

CCc1c2c(nc3ccccc13)-c1cc([C@@](O)(CC)C(=O)NCCN(C)C)c(COC(=O)Nc3ccccc3F)c(=O)n1C2 [Compound 8, 7-Ethyl-17-(2-fluorophenylcarbamoyloxy)-camptothecin-21-(2-dimethylamino)ethylamide]
solubility [1]: ~11 mg/mL (≈ 18.3 mM)

CCc1c2c(nc3ccccc13)-c1cc([C@@](O)(CC)C(=O)NCCN(C)C)c(COC(=O)Nc3cccc4ccccc34)c(=O)n1C2 [Compound 11, 7-Ethyl-17-(1-naphthylcarbamoyloxy)-camptothecin-21-(2-dimethylamino)ethylamide]
solubility [1]: ~5 mg/mL (≈ 7.89 mM)

CCc1c2c(nc3ccccc13)-c1cc([C@@](O)(CC)C(=O)NCCN(C)C)c(COC(=O)NC(C)C)c(=O)n1C2 [Compound 4, 7-Ethyl-17-iso-propylcarbamoyloxycamptothecin-21-(2-dimethylamino)ethylamide]
solubility [1]: ~50 mg/mL (≈ 91 mM)
Anti-tumor activity (T/C%) (mouse leukemia L1210; Table 4, total dose 3.13 mg/kg): 121%
Anti-tumor activity (T/C%) (mouse leukemia L1210; Table 4, total dose 6.25 mg/kg): 123%
Anti-tumor activity (T/C%) (mouse leukemia L1210; Table 4, total dose 12.5 mg/kg): 121%
Anti-tumor activity (T/C%) (mouse leukemia L1210; Table 4, total dose 25 mg/kg): 123%
Anti-tumor activity (T/C%) (mouse leukemia L1210; Table 4, total dose 50 mg/kg): 149%
Anti-tumor activity (T/C%) (mouse leukemia L1210; Table 4, total dose 100 mg/kg): 205%
Anti-tumor activity: fraction in parentheses after T/C% (meaning not given) (mouse leukemia L1210; Table 4, total dose 200 mg/kg): 1/6
Anti-tumor activity (T/C%) (mouse leukemia L1210; Table 4, total dose 200 mg/kg): 323%

CCc1c2c(nc3ccccc13)-c1cc([C@@](O)(CC)C(=O)NCCN(C)C)c(COC(=O)Nc3ccccc3)c(=O)n1C2 [Compound 7, 7-Ethyl-17-phenylcarbamoyloxycamptothecin-21-(2-dimethylamino)ethylamide]
solubility [1]: ~15 mg/mL (≈ 25.7 mM)
